From patent US20250295732A1, “COMPOSITIONS AND METHODS FOR ACTIVATING INNATE IMMUNITY” (Zoetis Services LLC, priority 2021, published 2025)

Key:
[1] = test system: milk macrophages (CD14+CD172a+ milk cells); assay: In vivo intramammary treatment and E. coli mastitis challenge model; design: species or system lactating dairy cows
Method: Healthy lactating dairy cows were treated according to table 1 on day −2 of study, at the AM milking, in the front quarters designated by the allotment, one quarter was treated with CATH2 and the neighboring quarter within the same cow was given vehicle control by intramammary infusion. Following administration of CATH2 and vehicle doses, quarters which received CATH2 or vehicle received an intramammary infusion of live Escherichia coli. The E. coli strain used causes clinical mastitis. Milk samples from CATH2-treated and vehicle control quarters were collected following E. coli challenge for cell isolation to assess macrophage surface marker expression.
Expression of surface markers on bovine monocyte-derived macrophages and cells isolated from bovine milk were assessed using flow cytometry. In brief, for monocyte-derived macrophages, cells were lifted with Accutase, washed, and then incubated with fluorescently tagged antibodies against bovine surface markers of interest (CD163, CD14, CD80, MHC II) and a live/dead stain. In brief, for cells in bovine milk, milk was diluted in MACS Running Buffer, spun, fat layer and supernatant were discarded, and milk cell pellets were preserved in Streck. Preserved milk cells were washed again and then incubated with fluorescently tagged antibodies against bovine surface markers of interest (CD163, CD14, CD80, MHC II, CD172a) and a live/dead stain. Following incubation with live/dead stain and antibodies, labeled cells were washed, and then analyzed on a ZE5 CellAnalyzer (BioRad) for monocyte-derived macrophages and a FACS Canto II (BD) for milk cells. Flow cytometry data were analyzed using FlowJo analysis software (Becton Dickson) to assess relative levels of expression via mean fluorescent intensity for each marker of interest within the live CD14+ cell population (for monocyte-derived macrophages) or within the live CD14+CD172a+ cell population (for milk cells).

[2] = test system: bovine monocyte-derived macrophages; assay: H3 histone modification quantification (ELISA); assay type: cell-based; conditions: vs vehicle
Description: Peripheral blood mononuclear cells (PBMC) were isolated from bovine blood using ficoll gradients. Bovine monocytes were isolated from PBMC using magnetic assisted cell sorting to positively select for CD14+ cells using anti-human CD14 microbeads (Miltenyi Biotec). Purified bovine blood CD14+ monocytes were differentiated into macrophages using an M2-skewing differentiation factor (recombinant bovine M-CSF) over 7 days then exposed to CATH2 or a vehicle control in the presence of bovine casein to mimic aspects of the mammary gland for 24 hr. […] Following the rest period, a subset of vehicle- and CATH2-trained monocyte-derived macrophages were assessed for epigenetic and transcriptomic changes. The remaining cells were challenged with LPS or E. coli bioparticle labeled with pH-sensitive pHrodo green dye and key parameters for macrophage activation/immune response were assessed including glycolytic activity, surface marker expression, gene expression, cytokine production, phagocytosis, reactive nitrogen species production, and miRNA profiling.
Histones were isolated from bovine monocyte-derived macrophages using commercially available histone extraction kits (Epigentek) according to the manufacturer's instructions and stored at −80° C. until histone quantification assays could be performed. […]

[3] = intramammary CATH2 prior to E. coli challenge

Sequence: RFGRFLRKIRRFRPKVTITIQGSARFG [CATH2, cathelicidin 2 peptide]
- Bacterial counts in milk [1, 3]: reduced bacterial counts in milk
- Milk somatic cell counts [1, 3]: lower milk somatic cell counts
- Milk macrophage surface marker expression (CD14, CD80, MHC II, CD163) ([1]; intramammary CATH2 prior to challenge, 12 hr following live E. coli intramammary challenge, vs vehicle quarter): enhanced expression of the same surface markers
- H3 histone modifications (incl. H3K27ac, H3K4me1) ([2]; after CATH2 exposure and rest period, pre-LPS): increased levels of various H3 histone modifications
- H3 histone modifications following LPS challenge ([2]; after CATH2 exposure, rest, LPS 1 μg/mL 24 hr): some modifications are retained to a lesser extent
